# Results: US20260115214A1, “APPLICATION OF INHIBITORS OF GLYCOLYTIC PATHWAY IN PREPARATION OF DRUGS FOR PREVENTING AND TREATING PORCINE REPRODUCTIVE AND RESPIRATORY SYNDROME VIRUS (PRRSV) INFECTION” (NANJING AGRICULTURAL UNIVERSITY, priority 2020, published 2026)
# Assays:
# [1] = test system: PRRSV; test: PRRSV replication in infected Marc-145 cells treated with glycolysis inhibitors (Western blotting, TCID50, RT-PCR); format: cell-based, porcine reproductive and respiratory syndrome virus; conditions: for virus titer (TCID50) in cell culture medium / PRRSV ORF7 mRNA level in the cells (RT-PCR): 36 h, 2-DG 0-15 μM; for virus titer (TCID50) in cell culture medium / PRRSV ORF7 mRNA level in the cells (RT-PCR) / PRRSV N protein expression level (Western blotting): SO 0, 25, 50 mM; for PRRSV ORF7 mRNA level in the cells (RT-PCR) / PRRSV N protein expression level (Western blotting): Gal 10, 50, 100 μM; for PRRSV N protein expression level (Western blotting): 36 h after infection
# Protocol: Highly pathogenic PRRSV strains BB0907 and Marc-145 cells are maintained in the laboratory and are conventional strains and cells disclosed in the prior art.
# Marc-145 cells were cultured in a 96-well plate. When the cell confluence reached 70%, a nutrient solution was pipetted, and the cell surface was washed 3 times with PBS. Ten-fold serial dilutions of PRRSV were added to the cells and incubated at 37° C. for 1 h. A medium was replaced with fresh 2% FBS-DMEM. Virus titers were determined 5 days post inoculation (dpi) by endpoint dilution assay. 50% tissue culture infectious dose (TCID50) was calculated by a Reed-Muench method.
# Cellular RNA was extracted following operating instructions of an OMEGA RNA virus extraction kit. After reverse transcription into cDNA, […].
# By a 2-ΔΔCt method, the relative content of mRNA in each gene in the samples was calculated by a CT value.
# (§1) To explore the effect of glycolysis in cells on PRRSV replication, an inhibitor of glycolytic pathway, 2-DG, was used to inhibit glycolysis in cells. […] After the Marc-145 cells were infected with PRRSV (0.01 MOI), the Marc-145 cells were treated with 0 μM, 2.5 μM, 5 μM, 10 μM and 15 μM of 2-DG respectively. After 36 hours, the inhibition efficiency of the 2-DG on PRRSV on the Marc-145 cells was detected by Western blotting.
# To further verify the effect of glycolysis on PRRSV, PRRSV-infected Marc-145 cells were treated with a key enzyme in the last step of glycolysis, that is, an inhibitor of lactate dehydrogenase, sodium oxamate (SO). A control group was set up to detect whether there was a difference in the level of virus replication. […] After the Marc-145 cells were infected with PRRSV (0.01 MOI), the Marc-145 cells were treated with 0 mM, 25 mM and 50 mM of SO. 36 h after infection, the PRRSV N protein expression level, virus titer and PRRSV ORF7 mRNA level were detected by Western blotting, TCID50 and RT-PCR respectively.
# PRRSV-infected Marc-145 cells were treated with an inhibitor of lactate dehydrogenase (Galloflavin, Gal), and a control group was set up to detect differences in viral replication levels. […] After Marc-145 cells were infected with PRRSV (0.01 MOI), the Marc-145 cells were treated with 10 μM, 50 μM and 100 μM of Gal. […] In addition, A PRRSV ORF7 mRNA level and the virus titer were detected by TCID50 and RT-PCR.
# [2] = test system: PRRSV BB0907 strain; test: Treatment of PRRSV-infected piglets by oral administration; format: in vivo; conditions: for microscopic lung lesion scores: day 14, compared with challenge control group, P<0.01; for gross lung lesion scores: day 14, compared with positive control group, sodium oxamate P<0.01, Galloflavin P<0.001; for PRRSV viral load in the lungs / histopathological changes of lungs / gross lung lesions (observation) / clinical symptoms (observation) / clinical symptoms compared with the positive control group / weight growth rate / virus content in the serum (PRRSV genome copy number, qRT-PCR): oral daily, sodium oxamate 7 mg or Galloflavin 10 μg; for PRRSV viral load in the lungs: 14 dpi, P<0.0001; for histopathological changes of lungs: day 14; for gross lung lesions (observation): day 14, compared with the positive control group; for clinical symptoms (observation): days 0-14; for clinical symptoms compared with the positive control group: days 0-14, P<0.001; for weight growth rate: days 0-14, P>0.05 vs negative control; for virus content in the serum (PRRSV genome copy number, qRT-PCR): serum at 1, 4, 7, 10, 14 dpi
# [3] = test system: Marc-145 cells; format: cell-based; conditions: monkey, 48 h
# Protocol: Marc-145 cells were cultured in 10% FBS-DMEM containing different concentrations of sodium oxamate (1-250 mM), Galloflavin (0-2.5 mM) and 2-deoxy-D-glucose (0-20 μM), and incubated at 37° C. for 48 h. Cell viability was detected with an enhanced CCK8 kit. DMSO was used as a negative control.
# as §1
# To further verify the effect of glycolysis on PRRSV, PRRSV-infected Marc-145 cells were treated with a key enzyme in the last step of glycolysis, that is, an inhibitor of lactate dehydrogenase, sodium oxamate (SO). […] 36 h after infection, the PRRSV N protein expression level, virus titer and PRRSV ORF7 mRNA level were detected by Western blotting, TCID50 and RT-PCR respectively.
# PRRSV-infected Marc-145 cells were treated with an inhibitor of lactate dehydrogenase (Galloflavin, Gal), and a control group was set up to detect differences in viral replication levels. […] In addition, A PRRSV ORF7 mRNA level and the virus titer were detected by TCID50 and RT-PCR.
Structure (SMILES),level of PRRSV replication (figure legend) [1],virus titer (TCID50) in cell culture medium ([1]; PRRSV 0.01 MOI),PRRSV ORF7 mRNA level in the cells (RT-PCR) ([1]; PRRSV 0.01 MOI),"inhibition at 5 µM ([1]; Porcine reproductive and respiratory syndrome virus, MARC145, concentration of 5 μM, PRRSV 0.01 MOI, after 36 hours, read-out: inhibition efficiency against PRRSV (Western blotting)) [%]",PRRSV N protein expression level (Western blotting) ([1]; PRRSV 0.01 MOI),microscopic lung lesion scores [2],gross lung lesion scores [2],PRRSV viral load in the lungs [2],histopathological changes of lungs [2],gross lung lesions (observation) [2],clinical symptoms (observation) [2],clinical symptoms compared with the positive control group [2],weight growth rate [2],"virus content in the serum (PRRSV genome copy number, qRT-PCR) [2]",concentration at which the substance starts to be toxic to the cells (CCK8) [3] [µM]
"O=CC[C@@H](O)[C@H](O)[C@H](O)CO [2-DG, 2-deoxy-D-glucose]",reduces the level of PRRSV replication,decreased in a dose-dependent manner,decreased in a dose-dependent manner,~50,,,,,,,,,,,
O=c1oc2c(cc1O)oc(=O)c1cc(O)c(O)c(O)c12 [Galloflavin],reduces the level of PRRSV replication,,decrease the mRNA level of PRRSV in a dose-dependent manner,,decrease PRRSV replication in the cells in a dose-dependent manner,significantly lower than those of the challenge control group,more significantly lower,significantly lower than that in the positive control group,"significantly alleviated, similar to those in the negative control group",significantly minor lung lesions,no obvious clinical symptoms,significantly relieved clinical symptoms,approximate to that of the negative control group,significantly lower than that in the positive control group,
NC(=O)C(=O)[O-].[Na+] [sodium oxamate],reduces the level of PRRSV replication,reduce PRRSV replication in the cells in a dose-dependent manner,reduce PRRSV replication in the cells in a dose-dependent manner,,reduce PRRSV replication in the cells in a dose-dependent manner,significantly lower than those of the challenge control group,significantly lower,significantly lower than that in the positive control group,mild thickened alveolar septa and inflammatory cell infiltration,significantly minor lung lesions,no obvious clinical symptoms,significantly relieved clinical symptoms,approximate to that of the negative control group,significantly lower than that in the positive control group,100000
